US7538129B2, “Diazonamide A analog” (Board of Regents, The University of Texas System, priority 2005, dated 2009)

Tests used:
MDA-MB-231 = experiment: growth inhibition (GI50) of tumor cell lines; type: cell-based; conditions: MDA-MB-231, FIG. 1
Method: A number of tumor cell lines representing breast, lung, colon, ovarian and prostate cancer as well as melanoma were assayed under standard growth conditions in presence of varying amounts of diazonamide A, a hydroxylated form of Compound J, Compound J, paclitaxel and vinblastine. The results are graphed as the concentration that diminishes growth by a factor of two (GI50) in FIG. 1.

HCT116 xenografts = experiment: growth inhibition of HCT116 xenografts; type: in vivo, mice; conditions: HCT116 (colon), 0.45 mg/kg, IP
Method: Details of the preparation of murine models containing xenografts of HCT116 cells or PC-3 cells are described in the section following these examples. After the tumors were grown, therapy utilizing Compound J or paclitaxel was initiated. […] In FIG. 4A, the *'s represent control mice, the squares represent 5 mg/kg Compound J; the diamonds represent 20 mg/kg Compound J; and the slanted line represents 20 mg/kg paclitaxel.
The details of the protocol for Examples 19 and 20 are as follows:
• PC3 prostrate tumor cells and HCT116 colon tumor cells (acquired from the tumor repository Division of Cancer Treatment and Diagnosis (DCTD) of the NCI • Complete RPMI Media • RPMI (Cat# 11875-085, Invitrogen) • 10% Heat-inactivated (30′ 56° C.) Fetal Bovine Serum (Cat# 100-106, Gemini Bio-Products • 2 mM L-glutamine (Cat# 25030-081, Invitrogen) • 0.1 mM MEM Non-Essential Amino Acids Solution (Cat#11140-050, Invitrogen) • 10 U/ml Penicillin/10 μg/ml Streptomycin (Cat#15140-122, Invitrogen) • 1 mM Sodium Pyruvate (Cat#l 1360-070) • Trypsin-EDTA (Cat#25300-054, Invitrogen) • Ca^2+/Mg^2+-free Phosphate Buffered Saline, 5% dextrose in water • Cell Culture Dish 150 mm×25 mm (Cat# 430599, Coming, Inc.) • 10 and 25 ml pipets, standard pipet-aid, p200 and p1000 pipette tips and standard pipetmen • Athymic NCr-nu/nu nude mice at 6-12 weeks of age, either sex (Strain code: 01B74, NCI Frederick Animal Production Program—suppliers include Charles River Labs and Taconic Farms). Female mice of approximately 7 weeks of age were utilized for existing experiments. • Standard 1 cc tuberculin syringe, 30G½ and 25G⅝ needles (Becton Dickinson) • Falcon 5 ml tubes (Cat#352054) • 50 and 15 ml disposable plastic conical tubes (Falcon or similar vendor) • Trypan Blue Solution (0.4%) (Cat#T8154, Sigma) • Hausser phase contrast hemacytometer (Cat# 02-671-54, Fisher) • Ice bucket • Balance for weighing mice (accurate to 0.2 g) • Vernier calipers • Vivarium facility free from known pathogens (nude mice should be housed in isolation from conventional mice if possible—separate rooms or micro-isolator cages equipped with individual air flow; all animal housing, bedding, water should be autoclaved prior to use; standard irradiated mouse chow should be used; animals should be changed out of cages within laminar flow hood; investigators handling mice should be suitably garbed—disposable gown, bonnet, booties, gloves, mask) • AB-5 (Compound J) compound • Ethyl alcohol, 200 proof (Aaper, MFD 041205) • Cremaphor (Cat# C5135, Sigma) • Paclitaxel (Cat#ANP0010, Polymed Therapeutics) Procedure: • 1) Rapidly thaw PC3 or HCT116 cells (if necessary) in 37° C. water bath. Transfer contents to 9ml complete RPMI media. Spin 5′ at 1200 rpm (240 Xg). Discard media and resuspend pellet in 8 ml complete RPMI media. Plate in 100 mm×25 mm cell culture dish in 5% CO2, 37° C. humidified incubator. • 2) Allow to grow for 5-10 days, splitting (aspirate media, wash with 3-5 ml PBS, add 1 ml trypsin-EDTA, incubate 3-5′ at 37° C., add media to desired volume and transfer to multiple plates) 1:8 to 1:10 every 3-4 days as necessary to allow cells to enter phase of logarithmic growth. • 3) When cells are growing well, begin to expand to 150 mm×25 mm dishes. We use 20 ml of media in a 150 mm dish and use 2 ml of trypsin for splitting. When nearly confluent, there should be 2×10^7 cells/150 mm dish. • 4) Plan ahead to time arrival of nu/nu mice such that they can acclimate to animal facility for 1 week prior to injection of tumor cells. […] Plan to inject 10 million cells/mouse and allow for loss of cells/volume during injection process. That is, if 30 mice are to be injected, plan to harvest cells sufficient for at least 35 injections—35×10 million cells=3.5×10^8 cells. In the existing HCT116 experiment, 7.5×10^6 cells were injected per mouse. Five mice per group were utilized for AB-5 treatment and four mice per group were utilized for the control and paclitaxel treatments. […]

[1] = system: MDA-MB-435 (breast) xenografts; experiment: growth inhibition of MDA-MB-435 xenografts; type: in vivo, mice; conditions: 0.7 mg/kg, IP

Row | SMILES | GI50 (concentration that diminishes growth by a factor of two) (MDA-MB-231) | #Tumor Free (day) (HCT116 xenografts) | % Max T/C (HCT116 xenografts) [%] | Log10 Tumor Cell Kill (HCT116 xenografts) | #Tumor Free (day) [1]
1 | CC(C)[C@H](O)C(=O)N[C@H]1Cc2ccc3c(c2)[C@]24C5=C(N=C(O5)[C@H](C(C)C)NC1=O)c1nc(Cl)c(o1)-c1c(Cl)[nH]c5cccc(c15)-c1cccc2c1N[C@@H]4O3 [diazonamide A] | more effective than the remaining drugs |  |  |  | 
2 | CC[C@]1(O)C[C@@H]2CN(CCc3c([nH]c4ccccc34)[C@@](C(=O)OC)(c3cc4c(cc3OC)N(C)[C@H]3[C@@](O)(C(=O)OC)[C@H](OC(C)=O)[C@]5(CC)C=CCN6CC[C@]43[C@@H]65)C2)C1 [vinblastine, reference compound] | more effective than the remaining drugs | 0/5 | 56.0 | 0.2 | 0/6
